Our source for the Control/% and mortality values is US12446583B2, “Methods of pest control in soybean” (SYNGENTA CROP PROTECTION AG, priority 2012, dated 2025).

Molecules are shown by their SMILES.

The test system of the assay is Euschistus heros. Put plainly: Euschistus heros (Neotropical Brown Stink Bug) contact/feeding activity on sprayed soybean plants. Particulars: for mortality at 50 ppm: 120 h, read-out: control (mortality and growth effects). It counts as in vivo. The method, then:
Euschistus heros (Neotropical Brown Stink Bug) (Contact/Feeding Activity)
2 week old soybean plants are sprayed in a turn table spray chamber with the diluted spray solutions. After drying, 2 soybean seeds are added and plants are infested with 10 N-2 nymphs of the neotropical brown stink bug Euschistus heros in plastic test boxes. Boxes are incubated in a climate chamber at 25° C. and 60% RH. Evaluation is done 5 days after infestation on mortality and growth effects.
Compounds are tested according to the above method.

As for `Cc1cc(C2=NOC(c3cc(Cl)cc(Cl)c3)(C(F)(F)F)C2)ccc1C(=O)N[C@@H]1CON(CC(F)(F)F)C1=O` (stereo partly shown) [Compound of the invention], the Control/% is, setting by setting: (application rate 0.8 ppm) 15%; (application rate 3 ppm) 85%; (application rate 12.5 ppm) 100%.

`Cc1cc(C2=NOC(c3cc(Cl)cc(Cl)c3)(C(F)(F)F)C2)ccc1C(=O)NC1CON(C)C1=O` (stereo not shown) [Compound A15]: the mortality (commonly the percentage killed) at 50 ppm was ≥ 80%.

`CCN1OCC(NC(=O)c2ccc(C3=NOC(c4cc(Cl)c(Cl)c(Cl)c4)(C(F)(F)F)C3)cc2Cl)C1=O` (stereo not shown) [Compound A1]: the mortality at 50 ppm was ≥ 80%.

In the case of `CCN1OCC(NC(=O)c2ccc(C3=NOC(c4cc(Cl)c(Cl)c(Cl)c4)(C(F)(F)F)C3)cc2Br)C1=O` (stereo not shown) [Compound A3], the mortality at 50 ppm was ≥ 80%.

On to `CCN1OCC(NC(=O)c2ccc(C3=NOC(c4cc(Cl)cc(Cl)c4)(C(F)(F)F)C3)cc2C(F)(F)F)C1=O` (stereo not shown) [Compound A4], for which the mortality at 50 ppm was ≥ 80%.

On to `CCN1OCC(NC(=O)c2ccc(C3=NOC(c4cc(Cl)cc(Cl)c4)(C(F)(F)F)C3)cc2C)C1=O` (stereo not shown) [Compound A17], for which the mortality at 50 ppm was ≥ 80%. Still for that read-out and setting: then `CCN1OCC(NC(=O)c2ccc(C3=NOC(c4cc(Cl)cc(Cl)c4)(C(F)(F)F)C3)cc2Br)C1=O` (stereo not shown) [Compound A2], with ≥ 80%; and `CCN1OCC(NC(=O)c2ccc(C3=NOC(c4cc(Cl)c(Cl)c(Cl)c4)(C(F)(F)F)C3)cc2C(F)(F)F)C1=O` (stereo not shown) [Compound A5], with ≥ 80%.

In the case of `Cc1cc(C2=NOC(c3cc(Cl)cc(Cl)c3)(C(F)(F)F)C2)ccc1C(=O)N[C@@H]1CON(Cc2ccccc2)C1=O` (stereo partly shown) [Reference compound, reference compound], the Control/% (application rate 0.8 ppm) was 0%, the Control/% (application rate 3 ppm) came out at 35% and the Control/% (application rate 12.5 ppm) was 90%.
